Measurements: patent US7615380B2, “Methods for modulating an immune response by modulating KRC activity” (President and Fellows of Harvard College, priority 2001, dated 2009)

Legend:
JNK = JNK in vitro kinase assay after transfection of 293 cells; type: cell-based, human; details: 293 cells cotransfected with TRAF2, 24 hours
Experimental: Inhibition of TRAF2 (A) and TNFα (B, C) mediated JNK/SAPK activation by ectopic expression of KRC. (A) 293 T cells were transfected with 400 ng of TRAF2 and 2 μg of the indicated expression vector. Twenty-four hours after the transfection, the cells were harvested and lysed, and the endogenous JNK was precipitated with 5 μg of GST-cJUN (1-79) for 4 hours. JNK activity was determined by using GST-cJUN (1-79) as a substrate. (B,C) 293 T cells were cotransfected with vectors encoding HA-tagged JNK2 (500ng) and the indicated expression vector (2 μg). Twenty-four hours after the transfection cells were stimulated for 10 min with 10 ng/ml of TNFα and cells harvested at varying time points. JNK activity was assayed with GST-cJUN (1-79) as substrate.
Anti-HA or anti-FLAG immunoprecipitates were used for immune complex kinase assays that were performed at 30° C. for 30 min with 1 μg of substrate, 10 μCi of γ^32 P ATP, and 10 μM ATP in 30 μl of kinase buffer (20 mM HEPES, pH 7.4, 10 mM MgCl2, 25 mM β-glycerophosphate, 50 μm NA3VO4, and 50 μm DTT). The substrate was GST-c-JUN.

TRAF2, TRAF5, TRAF6 = assay: Coimmunoprecipitation with TRAF family members in 293T cells; type: binding
From the text: FIGS. 1(A)-1(E) show the interaction of amino acid residues 204 to 1055 of KRC (“KRC tr”) (amino acids 204-1055 of SEQ ID NO:2) with TRAF family members. […] FIG. 1(B) upper panel depicts the interaction of KRC tr with TRAFs in mammalian cells. 293 T cells were cotransfected with the indicated FLAG-TRAFs and MYC-tagged KRC tr, and immunoprecipitated with anti-MYC antibody, followed by blotting with anti-FLAG antibody. FIG. 1(B) lower panel depicts the direct western blot of overexpressed TRAFS and KRC tr with anti-FLAG or anti-MYC. FIG. 1(C) depicts the differential interaction of KRC tr with TRAF proteins. The coimmunoprecipitation experiments were performed in the presence of 300 mM NaCl instead of 137 mM NaCl. FIG. 1(D) depicts KRC tr interacting with TRAF2 lacking the Ring finger domain. 293 T cells were transfected with MYC-KRC tr and with FLAG tagged TRAF2 or with FLAG-tagged TRAF2 (87-501). FIG. 1(E) depicts the interaction of KRC tr with endogenous TRAF2 but not with endogenous TRAF5 or TRAF6. 293T were transfected with an expression vector encoding an MYC-tagged KRC tr, or empty plasmid. Lysates from 293T cells were incubated with anti-MYC antibodies. Coimmunoprecipitated endogenous TRAF was detected by western blotting with specific anti-TRAF antibodies.
Effectene™ mediated transfections into 293T cells were performed. […]

IL-2 = IL-2 ELISA in stably transfected Jurkat clones; type: cell-based, human; details: stable Jurkat clones, PMA and ionomycin
Experimental: In panel A Jurkat T cells were stably transfected with vector (pEF) or KRC expression plasmids. Stable clones were stimulated for 18 hours with PMA (50 ng/mL) plus ionomycin (2 μM) and IL-2 production was measured by ELISA. In panel B Primary CD4+ T cells were activated for 36 hours and subsequently transduced with control (RV), KRC, or KRC dominant negative (ZAS2) bicistronic GFP-expressing retroviruses. GFP-positive cells were sorted and stimulated for 24 hours with anti-CD3 or anti-CD3/anti-CD28 antibodies and IL-2 production was measured by ELISA. In panel C CD4 T cells from KRC +/+ or −/− mice were stimulated with anti-CD3 (1.0 μg/mL)/CD28 (0.5 μg/mL) antibodies for 24 hours and IL-2 production was measured by ELISA. In panel D CD4 T cells from KRC +/+ or −/− mice were stimulated with anti-CD3/CD28 antibodies for 72 hours in the presence of 200 U/mL human IL-2. IFNγ production was measured by ELISA.
In this example, increased IL-2 production in Jurkat T cells stably expressing KRC was measured by ELISA. IL-2 promoter activation requires antigen receptor engagement plus an accessory signal usually supplied by an antigen presenting cell (Jain, J., et al. (1995) Curr. Biol. 7:333-342). […] G418 drug-resistant Jurkat clones were expanded and analyzed for IL-2 secretion following activation.

In the case of “KRC: full-length KRC zinc finger protein (SEQ ID NO:2) overexpressed from an expression vector”, the “TRAF2-dependent JNK activation” value (JNK) is reported as “blocked JNK activation only partially”, the “interaction with TRAF family members” value (TRAF2, TRAF5, TRAF6) is reported as “higher affinity with TRAF2 than with TRAF5 and TRAF6” and the IL-2 production (IL-2) is reported as “substantially greater amounts of IL-2”.
